Values quoted from earlier work as cited in patent US20050025804A1, “Reduction of adverse inflammation” (priority 2003, published 2005).

Conditions: peroxynitrite decomposition catalyst

In the case of CC(=O)[O-].Cc1c(-c2c3nc(c(-c4c(C)c(S(=O)(=O)[O-])c(C)c(S(=O)(=O)[O-])c4C)c4ccc([n-]4)c(-c4c(C)c(S(=O)(=O)[O-])c(C)c(S(=O)(=O)[O-])c4C)c4nc(c(-c5c(C)c(S(=O)(=O)[O-])c(C)c(S(=O)(=O)[O-])c5C)c5ccc2[n-]5)C=C4)C=C3)c(C)c(S(=O)(=O)[O-])c(C)c1S(=O)(=O)[O-].[Fe+3].[Na+].[Na+].[Na+].[Na+].[Na+].[Na+].[Na+].[Na+] [Fe(III)TMPS, acetato-5,10,15,20-tetrakis(3,5-disulfonatomesityl) porphyrin iron (III) octasodium salt], the rate constant is given as 2.06e+06 M⁻¹ s⁻¹.

In the case of “acetato (5,10,15,20-tetrakis(N-methyl-4-pyridyl)porphinato) iron (III) tetratosylate [Fe(III)TMPyP]”, the rate constant is listed as 2.75e+06 M⁻¹ s⁻¹.
